Measured values taken from patent publication US20130274212A1, “Sesterterpene Compounds and Use Thereof” (SNU R&DB FOUNDATION, priority 2010, published 2013).

Columns and labels:
[1] = biological target: Nurr1 (Mus musculus, UniProt Q06219); assay: GAL-mNurr1 luciferase reporter transfection assay in CV-1 cells; format: cell-based; details: GAL-mNurr1, luciferase corrected by β-galactosidase, 24 hours
Protocol: (§1) Animal cell line CV-1 was used in transfection search. Cells were cultured in DMEM medium within a cell incubator containing 5% carbon dioxide at 37° C. The medium contained 10% fetal bovine serum (FBS), 100 U/ml penicillin, and 100 μg/ml streptomycin. On day 1 of the experiment, CV1 cells were seeded in a 96-well plate at 5,000 cells/well. On day 2, the seeded cells were transfected with plasmid expressing GAL-mNurr1, plasmid expressing luciferase gene, and plasmid expressing β-galactosidase by using a transfection reagent, Superfect (QIAGEN). After 16 hours, the transfected cells were treated with compounds of Chemical Formula I dissolved in dimethylsulfoxide (DMSO) by the concentrations. Cells treated with dimethylsulfoxide having the final concentration of 1% were used as a negative control group. After culturing for 24 hours, the cells were lysed by using a lysis buffer, and luciferin was added thereto to measure the luciferase activity by a luminometer. After addition of an ONPG reagent, β-galactosidase activity was measured by an ELISA reader. The measured luciferase value was corrected by the activity value of β-galactosidase. […] Accordingly, it was verified that the compounds of Chemical Formula I were compounds selective to Nurr1.

[2] = tested on: LXR; assay: GAL-hLXRa or GAL-hLXRB luciferase reporter antagonist assay in CV-1 cells; format: cell-based, human; details: LXR agonist T0901517 500 nM
Protocol: as §1, with “expressing GAL-hLXRa or GAL-hLXRB,” for “expressing GAL-mNurr1,”, “expressing β-galactosidase,” for “expressing β-galactosidase”, “the concentrations (here, the final concentration of the LXR agonist, T0901517, was 500 nM).” for “the concentrations.”, “I are antagonist” for “I were”, “to LXR.” for “to Nurr1.”

[3] = tested on: BKS.Cg-+Lepr^db/+Lepr^db (db/db) mice; assay: Anti-diabetic efficacy in db/db mice (blood sugar, insulin, adiponectin, glucose and insulin tolerance); format: in vivo, mouse
Protocol: In the present example, in order to verify efficacy to prevent and treat diabetes of the compound of Chemical Formula I (CMDD-X or Compound 7) according to the present invention, BKS.Cg-+Lepr^db/+Lepr^db (db/db) mice as an insulin-independent diabetes animal model and general mice (C57BL/6J) fed with high-fat feedstuff were used. After the disease animal model was orally administered with CMDD-X, the diabetes-related index between the administered group and the control group was measured to verify the efficacy as an agent for preventing and treating diabetes. BKS.Cg-+Lepr^db/+Lepr^db (db/db) mice (male, 7-week old) as type 2 diabetes animal model were purchased and used. The experiment animals were adapted to a housing environment for 1 week while pellet type general diet (lab-chow) was supplied, and then divided into 2 groups of 18 mice each by randomized block design to have similar blood sugar and body weight. For general mice fed with high-fat feedstuff as another animal model, 6-week old C57BL/6J mice was purchased, and then were adapted to a lap environment for 2 weeks. After that, high-fat diet containing 35% fat diet (weight ratio, Research Diets. Co. Ltd.) was supplied for 14 weeks. The efficacy to prevent and treat diabetes by CMDD-X was observed through oral administration. A mouse fed with only 0.5% carboxylmethyl cellulose, as a medicine delivery, was used as a negative control group. The medicine was orally administered to the db/db mice for 4 weeks, a total of 28 days, and to the C57BL/6J mice, which was fed with the high-fat diet, for the last 6 weeks, at a dose of 10 mg/kg/day. The experiment animals after administration were fasted for 15 hours before autopsy, and then the blood taken from the orbital venous treated with heparin. […] The other organ tissues were rapidly cooled in the liquid nitrogen immediately after removal thereof, and kept at −70° C. and then analyzed. T-test was conducted with respect to the control group and the administered group, a significant difference of less than 5% (P<0.05) was determined as having have a statistical significance.
In order to measure the blood sugar reduction efficacy of the compound of Chemical Formula I (CMDD-X or Compound 7), the blood was collected through tail veins of the db/db mice before experiment ending, after feeding, and after stomach was empty for 15 hours, and the blood sugar was measured by using a glucose oxidase method. […]
The insulin and adiponectin concentrations of the plasma, obtained from the orbital venous of the db/db mice orally administered with CMDD-X (or Compound 7) for 4 weeks, were measured by using an Elisa Kit. […]

[4] = tested on: Gyk, LXR, SREBP1c, SCD1, PPARa, UCP gene expression; assay: Gene expression analysis (micro-array, Q-RT PCR) in diabetic mice fed with compound; format: in vivo, mouse
Protocol: Gene expression analysis was conducted to establish the mechanism. The gene analysis was conducted by using micro-array and the Q-RT PCR method. […] Expressions of PPARa and UCP, which are genes for burning the newly generated fat to release heat, were increased (FIG. 13).

[5] = tested on: db/db mice; assay: Renal failure as diabetes complication: blood urea nitrogen in db/db mice; format: in vivo, mouse; details: oral 10 mg/kg/day, 4 weeks
Protocol: In order to verify the efficacy to treat renal failure as a diabetes complication, a db/db disease animal model was used. 8-week old db/db mice were orally administered with the compound of Chemical Formula I (CMDD-X or Compound 7) at a dose of 10 mg/kg/day for 4 weeks, and then the blood urea nitrogen as a marker to treat renal failure was measured.

[6] = tested on: C57BL/6 mice administered with MPTP; assay: MPTP-induced Parkinson's disease mice, Rotarod exercise capacity; format: in vivo, mouse; details: oral 5 mg/kg once per day for 5 days before MPTP 25 mg/kg; measured after 3 days
Excerpt: In the present example, in order to verify efficacy to prevent and treat Parkinson's Disease of the compound of Chemical Formula I according to the present invention in the Parkinson's Disease as one of neurodegenerative diseases, mice administered with 1-methyl-4-phenyl-1,2,3,6-tetrahydropyridine (MPTP) were used. The efficacy to prevent and treat the Parkinson's Disease was verified by administering the compound of Chemical Formula I (CMDD-X or Compound 7) to a Parkinson's Disease-induced disease model and then measuring exercise capacity of the mice. C57BL/6 mice (male, 12-week old) were used. The mice were adapted to a housing environment for 1 week while pellet type general diet was supplied, and then divided into 3 groups of 5 mice each to have similar body weights. Before MPTP administration, the compound CMDD-X was orally administered at a concentration of 5 mg/kg. After 3 hours, probenecid as MPTP efflux inhibitor was intraperitoneally administered to the mice at a concentration of 250 mg/kg, and, after 2 hours, 25 mg/kg of MPTP was intraperitoneally administered. Administration was conducted once per one day for a total of 5 days, and, after 3 days, exercise capacity of the mice was measured by using the Rotarod. […]

Nurr1, sequence (Q06219 360-598 limits assumed): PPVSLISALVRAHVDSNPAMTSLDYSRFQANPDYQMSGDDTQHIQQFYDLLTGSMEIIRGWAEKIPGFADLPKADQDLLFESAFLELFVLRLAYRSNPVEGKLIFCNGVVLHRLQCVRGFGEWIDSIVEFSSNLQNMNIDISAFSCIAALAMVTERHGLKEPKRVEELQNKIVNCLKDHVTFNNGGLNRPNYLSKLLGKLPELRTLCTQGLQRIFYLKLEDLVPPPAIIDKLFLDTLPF

Row | EC50 [1] [nM] | IC50 [2] [nM] | SMILES | insulin tolerance test: final blood sugar decreased as compared with the control group ([3]; insulin 3 unit/kg) [%] | blood sugar after food intake, lower than that of the control group ([3]; oral 10 mg/kg/day, 4 weeks) [%] | blood sugar at the time of an empty stomach, reduction ([3]; oral 10 mg/kg/day, 4 weeks, fasted 15 hours) [%] | blood insulin concentration, relative to that of the control group ([3]; oral 10 mg/kg/day, 4 weeks, plasma, Elisa Kit) [%] | expressions of LXR, SREBP1c, and SCD1 [4] | expression of Gyk (glycolysis biomarker), increase ([4]; micro-array and Q-RT PCR) [times] | efficacy on renal failure (blood urea nitrogen) [5] | exercise capacity (Rotarod) [6]
1 | 28 | 21 | CC(C)=CCC/C(C)=C/[C@@H]1CC(C)=C[C@]2(C=C(COS(=O)(=O)c3ccc(C)cc3)[C@H]3CC(=O)C(C)=C[C@H]3O2)O1 [Compound 1] |  |  |  |  |  |  |  | 
2 | 25 | 85 | C#CCOCC1=C[C@]2(C=C(C)C[C@@H](/C=C(\C)CCC=C(C)C)O2)O[C@@H]2C=C(C)C(=O)C[C@H]12 [Compound 8] |  |  |  |  |  |  |  | 
3 | 32 | 11 | CC(C)=CCC/C(C)=C/[C@@H]1CC(C)=C[C@]2(C=C(CF)[C@H]3CC(=O)C(C)=C[C@H]3O2)O1 [Compound 7] | 58 | 27 | 28 | 73 | very increased | 1.3 | somewhat superior efficacy as compared with CMDD-X | the same results as CMDD-X
4 | 7 | 5 | CC(C)=CCC/C(C)=C/[C@@H]1CC(C)=C[C@]2(C=C(C=O)[C@H]3CC(=O)C(C)=C[C@H]3O2)O1 [Compound 4] |  |  |  |  |  |  |  | 
